In assay [1] the target is HCV NS3/4A protease genotype 1b (Hepatitis C virus genotype 1b, UniProt P26663). Kind of assay: HCV NS3/4A protease time-resolved fluorescence (TRF) assay, Ki against genotype 1b. It is filed as biochemical. In outline: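 Enzyme 0.2 nM 1b / 0.4 nM A156T / 0.025 nM 3a; 30 min preinc. w/ cpd; 25 nM TRF peptide; 2.5 h RT; ex 340/em 615 time-delayed; 4-param IC50 → Ki = IC50/(1+[S]/KM).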

Assay [2] concerns HCV genotype 1b replicon. Kind of assay: HCV replicon assay, genotype 1b replicon EC50. It is filed as cell-based, Hepatitis C virus. Conditions: Hepatitis C virus, read-out: EC50 [gt-1b]. In short, it runs like this: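 Stable neomycin-selected genotype 1b replicon cells, some carrying luciferase:Neo^r fusion, plated without G418 with a compound dilution series and incubated 24-48 h. Read-out was RNA (^32P-probe protection or TaqMan, normalized to cyclophilin A) or luciferase activity. EC50 from four-parameter fit as percent of DMSO control.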
A general note: A replicon is a self-replicating genome or part of one, used to study replication in cells.

Setting [3] is: IC50 [gt-1b] (nM), NS3/4A genotype 1b, enzyme 0.2 nM.
Setting [4] is: IC50 [gt-1b], NS3/4A protease TRF assay, genotype 1b enzyme 0.2 nM.

Where two headings read alike, the source gives them in different places.

By IC50 is commonly meant the midpoint of a concentration-inhibition curve. Broadly, the EC50 is the concentration giving half of the maximal effect.

As for `Cc1nc2ccccc2c2c1O[C@]1(CC2)C[C@H]2C(=O)N[C@]3(C(=O)NS(=O)(=O)C4(C)CC4)C[C@H]3/C=C\CCCCC[C@H](NC(=O)OC3(C(F)(F)F)CCCC3)C(=O)N2C1` [Example 326, 1-(trifluoromethyl)cyclopentyl [(2R,6S,12Z,13aS,14aR,16aS)-5′-methyl-14a-{[(1-methylcyclopropyl)sulfonyl]carbamoyl}-5,16-dioxo-1,1′,2′,5,6,7,8,9,10,11,13a,14,14a,15,16,16a-hexadecahydrospiro[cyclopropa[e]pyrrolo[1,2-a][1,4]diazacyclopentadecine-2,3′-pyrano[2,3-c]quinolin]-6-yl]carbamate], the IC50 in assay [1] (setting [3]) turned out to be 0.023 nM. For the same compound, the EC50 in assay [2] (genotype 1b replicon) was found to be 1.11 nM.

In assay [1] (setting [3]), `CC(C)(C)OC(=O)N[C@H]1CCCCC/C=C\[C@@H]2C[C@@]2(C(=O)NS(=O)(=O)C2(C)CC2)NC(=O)[C@@H]2C[C@]3(CCc4c(c(C(F)F)nc5ccccc45)O3)CN2C1=O` [Example 306, tert-butyl [(2R,6S,12Z,13aS,14aR,16aS)-5′-(difluoromethyl)-14a-{[(1-methylcyclopropyl)sulfonyl]carbamoyl}-5,16-dioxo-1,1′,2′,5,6,7,8,9,10,11,13a,14,14a,15,16,16a-hexadecahydrospiro[cyclopropa[e]pyrrolo[1,2-a][1,4]diazacyclopentadecine-2,3′-pyrano[2,3-c]quinolin]-6-yl]carbamate] came in with a half-maximal inhibitory concentration (IC50) of 0.015 nM. Besides, the EC50 in assay [2] (genotype 1b replicon) amounted to 1.87 nM.

With `COc1ccc2nc(C)c3c(c2c1)CC[C@]1(C[C@H]2C(=O)N[C@]4(C(=O)NS(=O)(=O)C5(C)CC5)C[C@H]4/C=C\CCCCC[C@H](NC(=O)OC4CC5CC(=O)OC5C4)C(=O)N2C1)O3` (stereo partly drawn) [Example 261, 2-oxohexahydro-2H-cyclopenta[b]furan-5-yl [(2R,6S,12Z,13aS,14aR,16aS)-9′-methoxy-5′-methyl-14a-{[(1-methylcyclopropyl)sulfonyl]carbamoyl}-5,16-dioxo-1,1′,2′,5,6,7,8,9,10,11,13a,14,14a,15,16,16a-hexadecahydrospiro[cyclopropa[e]pyrrolo[1,2-a][1,4]diazacyclopentadecine-2,3′-pyrano[2,3-c]quinolin]-6-yl]carbamate], the half-inhibitory concentration (IC50) in assay [1] (setting [3]) was determined as 0.008 nM. The EC50 in assay [2] (genotype 1b replicon) amounted to 192 nM.

`CC(C)COC(=O)N[C@H]1CCCCC/C=C\[C@@H]2C[C@@]2(C(=O)NS(=O)(=O)C2(C)CC2)NC(=O)[C@@H]2C[C@]3(CCc4c(cnc5ccccc45)O3)CN2C1=O` [Example 110, 2-methylpropyl [(2R,6S,12Z,13aS,14aR,16aS)-14a-{[(1-methylcyclopropyl)sulfonyl]carbamoyl}-5,16-dioxo-1,1′,2′,5,6,7,8,9,10,11,13a,14,14a,15,16,16a-hexadecahydrospiro[cyclopropa[e]pyrrolo[1,2-a][1,4]diazacyclopentadecine-2,3′-pyrano[2,3-c]quinolin]-6-yl]carbamate]: half-maximal inhibition in assay [1] (setting [3]) (IC50) was put at 0.806 nM. For the same compound, the EC50 in assay [2] (genotype 1b replicon) was 47.7 nM.

`Cc1nc2ccccc2c2c1O[C@]1(CC2)C[C@H]2C(=O)N[C@]3(C(=O)NS(=O)(=O)C4(C)CC4)C[C@H]3/C=C\CCCCC[C@H](NCCC(C)(C)C)C(=O)N2C1` [Example 164, (2R,6S,12Z,13aS,14aR,16aS)-6-[(3,3-dimethylbutyl)amino]-5′-methyl-N-[(1-methylcyclopropyl)sulfonyl]-5,16-dioxo-1,1′,2′,6,7,8,9,10,11,13a,14,15,16,16a-tetradecahydrospiro[cyclopropa[e]pyrrolo[1,2-a][1,4]diazacyclopentadecine-2,3′-pyrano[2,3-c]quinoline]-14a(5H)-carboxamide] had an IC50 in assay [1] (setting [3]) of 0.132 nM. Besides, in assay [2] (genotype 1b replicon), the EC50 was determined as 2.71 nM.

On to `Cc1nc2ccc(OCCN3CCOCC3)cc2c2c1O[C@]1(CC2)C[C@H]2C(=O)N[C@]3(C(=O)NS(=O)(=O)C4(C)CC4)C[C@H]3/C=C\CCCCC[C@H](NC(=O)OC(C)(C)C)C(=O)N2C1` [Example 418, tert-butyl {(2R,6S,12Z,13aS,14aR,16aS)-5′-methyl-14a-{[(1-methylcyclopropyl)sulfonyl]carbamoyl}-9′-[2-(morpholin-4-yl)ethoxy]-5,16-dioxo-1,1′,2′,5,6,7,8,9,10,11,13a,14,14a,15,16,16a-hexadecahydrospiro[cyclopropa[e]pyrrolo[1,2-a][1,4]diazacyclopentadecine-2,3′-pyrano[2,3-c]quinolin]-6-yl}carbamate], for which the IC50 in assay [1] (setting [4]) is 0.008 nM. Also, the EC50 in assay [2] (HCV replicon, genotype 1b) was 6.24 nM.

`Cc1nc2cc(Cl)ccc2c2c1O[C@]1(CC2)C[C@H]2C(=O)N[C@]3(C(=O)NS(=O)(=O)C4(C)CC4)C[C@H]3/C=C\CCCCC[C@H](NC(=O)OC3CCCC3)C(=O)N2C1` [Example 238, cyclopentyl [(2R,6S,12Z,13aS,14aR,16aS)-8′-chloro-5′-methyl-14a-{[(1-methylcyclopropyl)sulfonyl]carbamoyl}-5,16-dioxo-1,1′,2′,5,6,7,8,9,10,11,13a,14,14a,15,16,16a-hexadecahydrospiro[cyclopropa[e]pyrrolo[1,2-a][1,4]diazacyclopentadecine-2,3′-pyrano[2,3-c]quinolin]-6-yl]carbamate]: the midpoint of inhibition in assay [1] (setting [3]), the IC50, lay at 0.02 nM. In addition, the EC50 in assay [2] (genotype 1b replicon) amounted to 7.72 nM.

As to `CC[C@@H](C)OC(=O)N[C@H]1CCCCC/C=C\[C@@H]2C[C@@]2(C(=O)NS(=O)(=O)C2(C)CC2)NC(=O)[C@@H]2C[C@]3(CCc4c(c(C5CC5)nc5ccc(OC)cc45)O3)CN2C1=O` [Example 420, (2R)-butan-2-yl [(2R,6S,12Z,13aS,14aR,16aS)-5′-cyclopropyl-9′-methoxy-14a-{[(1-methylcyclopropyl)sulfonyl]carbamoyl}-5,16-dioxo-1,1′,2′,5,6,7,8,9,10,11,13a,14,14a,15,16,16a-hexadecahydrospiro[cyclopropa[e]pyrrolo[1,2-a][1,4]diazacyclopentadecine-2,3′-pyrano[2,3-c]quinolin]-6-yl]carbamate], in assay [1] (IC50 [gt-1b], NS3/4A protease TRF assay, genotype 1b enzyme 0.2 nM, K+ salt), the IC50 came to 0.011 nM. In addition, the EC50 in assay [2] (HCV replicon, genotype 1b, K+ salt) is 1.25 nM.

For the compound `COCC(C)(C)OC(=O)N[C@H]1CCCCC/C=C\[C@@H]2C[C@@]2(C(=O)NS(=O)(=O)C2(C)CC2)NC(=O)[C@@H]2C[C@]3(CCc4c(c(C)nc5ccc(OC(F)(F)F)cc45)O3)CN2C1=O` [Example 207, 1-methoxy-2-methylpropan-2-yl [(2R,6S,12Z,13aS,14aR,16aS)-5′-methyl-14a-{[(1-methylcyclopropyl)sulfonyl]carbamoyl}-5,16-dioxo-9′-(trifluoromethoxy)-1,1′,2′,5,6,7,8,9,10,11,13a,14,14a,15,16,16a-hexadecahydrospiro[cyclopropa[e]pyrrolo[1,2-a][1,4]diazacyclopentadecine-2,3′-pyrano[2,3-c]quinolin]-6-yl]carbamate], the midpoint of inhibition in assay [1] (setting [3]), the IC50, lay at 0.007 nM. In assay [2] (genotype 1b replicon), the EC50 stood at 1.08 nM.

`CCN(CC)C(=O)N[C@H]1CCCCC/C=C\[C@@H]2C[C@@]2(C(=O)NS(=O)(=O)C2(C)CC2)NC(=O)[C@@H]2C[C@]3(CCc4c(c(C)nc5ccccc45)O3)CN2C1=O` [Example 289, (2R,6S,12Z,13aS,14aR,16aS)-6-[(diethylcarbamoyl)amino]-5′-methyl-N-[(1-methylcyclopropyl)sulfonyl]-5,16-dioxo-1,1′,2′,6,7,8,9,10,11,13a,14,15,16,16a-tetradecahydrospiro[cyclopropa[e]pyrrolo[1,2-a][1,4]diazacyclopentadecine-2,3′-pyrano[2,3-c]quinoline]-14a(5H)-carboxamide]: in assay [1] (IC50 [gt-1b] (nM), NS3/4A genotype 1b, enzyme 0.2 nM, HCOOH salt), the IC50 was 0.023 nM. Besides, the EC50 in assay [2] (genotype 1b replicon, HCOOH salt) turned out to be 7 nM.

As to `COc1ccc2nc(C(F)(F)F)c3c(c2c1)[C@](C)(O)C[C@]1(C[C@H]2C(=O)N[C@]4(C(=O)NS(=O)(=O)C5(C)CC5)C[C@H]4/C=C\CCCCC[C@H](NC(=O)OC(C)(C)C)C(=O)N2C1)O3` [Example 489, tert-butyl [(1′R,2S,6S,12Z,13aS,14aR,16aS)-1′-hydroxy-9′-methoxy-1′-methyl-14a-{[(1-methylcyclopropyl)sulfonyl]carbamoyl}-5,16-dioxo-5′-(trifluoromethyl)-1,1′,2′,5,6,7,8,9,10,11,13a,14,14a,15,16,16a-hexadecahydrospiro[cyclopropa[e]pyrrolo[1,2-a][1,4]diazacyclopentadecine-2,3′-pyrano[2,3-c]quinolin]-6-yl]carbamate], half-maximal inhibition in assay [1] (setting [4]) (IC50) was put at 0.016 nM. In assay [2] (HCV replicon, genotype 1b), the EC50 turned out to be 4.22 nM.

For `Cc1nc2cc(F)ccc2c2c1O[C@]1(CC2)C[C@H]2C(=O)N[C@]3(C(=O)NS(=O)(=O)C4(C)CC4)C[C@H]3/C=C\CCCCC[C@H](NC(=O)OC3CCCC3)C(=O)N2C1` [Example 327, cyclopentyl [(2R,6S,12Z,13aS,14aR,16aS)-8′-fluoro-5′-methyl-14a-{[(1-methylcyclopropyl)sulfonyl]carbamoyl}-5,16-dioxo-1,1′,2′,5,6,7,8,9,10,11,13a,14,14a,15,16,16a-hexadecahydrospiro[cyclopropa[e]pyrrolo[1,2-a][1,4]diazacyclopentadecine-2,3′-pyrano[2,3-c]quinolin]-6-yl]carbamate], in assay [1] (IC50 [gt-1b] (nM), NS3/4A genotype 1b, enzyme 0.2 nM, K+ salt), the IC50 was found to be 0.026 nM. In addition, the 50% effective concentration (EC50) in assay [2] (genotype 1b replicon, K+ salt) was determined as 3.61 nM.

The values are drawn from US8987195B2 (priority 2012, dated 2015).
